“Also recorded” adds a separate entry of the source.
Tests used:
CXCR4 = target: T1, CXCR4 (Homo sapiens, UniProt P61073); test: Luciferase complementation for recruitment of β-arrestin to CXCR4; format: cell-based
T1 construct: expressed in transfected cells

CXCR7 = target: T2, CXCR7 (Homo sapiens, UniProt P25106); test: CXCR7/β-arrestin 2 firefly luciferase complementation assay for CXCR7 activation; format: cell-based
T2 construct: expressed in transfected cells; host or cells: reporter cells stably expressing the CXCR7/β-arrestin 2 PCA
Source text: Binding of synthetic or natural ligands to 7-transmembrane receptors activates the receptor, resulting in receptor activation and recruitment of β-arrestin, a cytosolic adapter protein. The protein interaction between CXCR7 and β-arrestin 2 has been used to develop a protein fragment complementation assay for detecting activation of CXCR7. […] Ligand-dependent interaction of CXCR7 and β-arrestin 2 also brings together NLuc and CLuc fragments, which reconstitutes active firefly luciferase.
Ligands for CXCR7 activate the receptor, causing recruitment of β-arrestin. To determine to what extent the engineered knottin interacts with CXCR7, firefly luciferase complementation for CXCR7 activation was used as a reporter for binding of the peptide to the receptor. CXCR7/β-arrestin reporter cells were incubated with increasing concentrations of CXCR7-targeted knottin for 2 hours and then luciferase activity was quantified in living cells.

[1] = test system: adenomas (dysplastic polyps) in the rectum; test: In vivo fluorescence endoscopy of topically applied peptide in CPC;APC mouse model of colon cancer; conditions: FITC-labeled peptide 10 μM, 1 ml topical, ~10 minute dwell, PBS rinse
Source text: This small animal endoscope (Karl Storz Veterinary Endoscopy, Goleta, Calif.) consists of a 9.5 Fr (3 mm) diameter rigid Hopkins II 0 deg telescope with a 11.5 cm working length and a 3 Fr (1 mm) diameter instrument channel for performing tissue biopsy. Fluorescence excitation is produced with a 450 to 475 nm passband filter that can be manually switched into the optical path of a 175 W Nova Xenon light source, and is delivered to the endoscope via a 3 mm diameter fluid light cable with 250 cm length. Fluorescence images are collected with 510 nm barrier filter to block the excitation light, and are detected with a 3-chip color camera with an integrated parfocal zoom lens. Real time video can be recorded via firewire connected to a personal computer.
The rectum of the mouse was first cleaned of stool and debris by performing tap water lavage, and then the distal end of the small animal endoscope was lubricated and inserted into the rectum of the mouse. Once adenomas were identified on white light, shown in FIG. 25A, a 1 ml solution of FITC-labeled peptide “VRPMPLQ” at a concentration of 10 μM was applied through the instrument channel with a syringe, and allowed to dwell for ˜10 minute, followed by gentle rinsing with PBS. […] The rectum was then rinsed vigorously with PBS. Complete removal of the peptide from the rectal mucosa was observed on fluorescence. […]

colonic adenoma = conditions: topical, cited from earlier work

T2 sequence (P25106 whole entry, species assumed): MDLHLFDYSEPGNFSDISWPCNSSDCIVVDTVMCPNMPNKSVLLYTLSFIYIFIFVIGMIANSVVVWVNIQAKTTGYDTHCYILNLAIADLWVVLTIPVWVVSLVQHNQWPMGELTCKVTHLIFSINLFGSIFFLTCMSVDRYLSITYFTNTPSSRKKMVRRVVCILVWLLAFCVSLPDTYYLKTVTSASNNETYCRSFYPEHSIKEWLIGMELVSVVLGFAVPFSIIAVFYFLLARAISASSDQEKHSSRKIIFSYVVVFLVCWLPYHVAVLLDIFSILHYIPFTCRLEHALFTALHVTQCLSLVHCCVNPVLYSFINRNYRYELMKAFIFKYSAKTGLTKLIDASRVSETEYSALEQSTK
T2 sequence (P32121 whole entry partner, species assumed): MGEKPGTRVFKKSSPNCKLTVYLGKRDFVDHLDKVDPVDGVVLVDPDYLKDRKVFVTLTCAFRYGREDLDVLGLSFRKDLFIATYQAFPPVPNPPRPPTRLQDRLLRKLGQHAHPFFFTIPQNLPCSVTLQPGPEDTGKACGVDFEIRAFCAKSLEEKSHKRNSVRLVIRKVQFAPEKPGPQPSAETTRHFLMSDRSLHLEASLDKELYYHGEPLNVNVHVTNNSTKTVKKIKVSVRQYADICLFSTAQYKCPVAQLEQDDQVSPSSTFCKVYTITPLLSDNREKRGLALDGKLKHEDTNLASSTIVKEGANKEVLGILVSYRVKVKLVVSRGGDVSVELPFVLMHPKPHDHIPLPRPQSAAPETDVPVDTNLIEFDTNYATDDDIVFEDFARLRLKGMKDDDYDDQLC
T1 sequence (P61073 whole entry, species assumed): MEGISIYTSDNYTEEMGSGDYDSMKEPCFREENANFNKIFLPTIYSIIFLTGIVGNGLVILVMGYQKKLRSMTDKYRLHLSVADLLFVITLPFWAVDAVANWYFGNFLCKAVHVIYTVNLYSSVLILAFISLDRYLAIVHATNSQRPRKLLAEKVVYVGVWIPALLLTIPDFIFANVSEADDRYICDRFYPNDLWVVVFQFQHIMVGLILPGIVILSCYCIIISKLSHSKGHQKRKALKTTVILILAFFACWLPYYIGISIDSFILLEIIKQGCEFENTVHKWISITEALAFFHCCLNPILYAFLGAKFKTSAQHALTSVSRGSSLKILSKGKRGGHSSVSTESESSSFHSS

## GGCKPVSLSYRAPARFCKQDSDCLAGCVCGPNGFCGSA [CXCR7-targeted knottin]
CXCR4
  activation of CXCR4 (recruitment of β-arrestin): did not activate CXCR4
CXCR7; from luciferase complementation for both receptors
  selectivity CXCR7 versus CXCR4: selectively interacts with CXCR7 and not CXCR4
CXCR7; reporter cells, living cells, knottin incubated 2 hours with increasing concentrations
  activation of CXCR7 (bioluminescence): increased bioluminescence; also recorded: dose-dependent activation of CXCR7

## QLMRPPV [FITC-labeled scrambled (control) peptide, reference compound]
[1]
  peptide binding to adenomas (fluorescence image): significantly less fluorescence intensity; also recorded: reduced binding

## VRPMPLQ [7mer peptide from phage display, conjugated to fluorescein using a hexanoic acid linker to the N-terminus]
[1]
  peptide binding to adenomas (fluorescence image): preferential peptide binding to the adenomas; also recorded: affinity binding
Colonic adenoma; 50 μm depth, FIG. 23B
  peptide binding seen in fluorescence image, adenoma versus normal mucosa: significant peptide binding to colonocytes surrounding dysplastic crypts (adenoma)
Colonic adenoma; imaged at 50 μm depth, n=10 adenomas and adjacent normal mucosa
  average contrast ratio (adenoma:normal fluorescence intensity): 21±6
